Results from paper PMC8457121, “From Kinase Inhibitors to Multitarget Ligands as Powerful Drug Leads for Alzheimer's Disease using Protein‐Templated Synthesis” (Angewandte Chemie (International Ed. in English), 2021).

Test system: SK-APP cells
Test: Aβ40 and Aβ42 levels in SK-APP cells (sandwich ELISA)
Type: cell-based, human
Conditions: 10 μM, 48 h treatment
Procedure: page 35: enzyme concentration (1 U/mL). Inhibitor screening at 10 μM. The mixture was incubated for 60 min at 25 °C under dark conditions and then stopped with 2.5 M sodium acetate. Fluorescence was measured with a FLUOstar Optima (BMG Labtechnologies GmbH, Offenburg, Germany) microplate reader at 545 nm excitation and 585 nm emission. Evaluation of BACE Inhibitors Kinetics. To evaluate the mechanism of BACE1 inhibition of the compounds, substrate-dependent kinetic experiments were performed. BACE activity were measured at five different concentrations substrate (1000 -62,5 μM) in the absence or presence of the select inhibitor at two different concentrations. The results are presented as double reciprocal Lineweaver-Burk plots (1/V vs 1/[S]) Figure S1. Cell culture and treatments. SK-N-MC cells stably expressing the human isoform APP695 (SK-APP cell line […]1) were generated by transfection of SK-N-MC cells with a pCDNA3-APP expression vector, and kindly provided by Dr. MJ Bullido. These cells were cultured in DMEM (Thermo Fisher) medium supplemented with 10% FBS (Thermo Fisher), 1 mM glutamine (Sigma- Aldrich), and 100 unit/ml penicillin (Lonza) and […] streptomycin (Lonza). Cell cultures were maintained in a 5% CO2, humidified atmosphere at 37 °C. SH-SY5Y cells were obtained from the American Type Culture Collection and grown in DMEM media (Gibco), supplemented with 10% foetal bovine serum, and 1% penicillin/streptomycin (Invitrogen). The cells were grown at 37 °C in a humidified 5% CO2 atmosphere. For the treatments, all the compounds were dissolved in dimethyl sulfoxide (DMSO, from Sigma) at an initial stock concentration of 10 mM. […] working solutions were obtained from the dilution of the stock solutions in DMEM media (DMSO control solutions were prepared similarly to the compounds). Okadaic acid (OA, Sigma-Aldrich) was dissolved in DMSO at an initial stock concentration of 60 μM and a 250X working solution was obtained from the dilution of the stock solution in DMEM. All the compounds (250x solutions) were added directly into the wells at the indicated final concentrations for 1 hour before the treatment with OA at a final concentration of 30 nM. DMSO was added at the appropriate concentration to the 34 page 36: control-untreated cells. The cells were maintained in the presence of the OA and the different compounds for 24h. Measurement of cell viability. Cell viability assays were carried out using a 3- […] (Sigma-Aldrich) in 96-well cell culture plates. All cells were then incubated with a 0.5 mg/ml MTT solution (Sigma-Aldrich) at 37 °C for 4 h and then with cell lysis […] The absorbance values were determined at 590 nm. Cell viability was expressed as a percent of OD of control cells, the value of which was defined as 100%. Cell viability in SH-SY5Y were carried out following the same procedure but seeding the cells in 24 well multiplates. Absorbance was measured using a Varioskan Flash multiplate reader (Thermo Scientific) at test 550 nm and reference 664 nm wave-lengths. Compound concentration for SK-APP line was 10 μM and for the SH-SY5Y was 1 and 5 μM. Immunoassays. Levels of Aβ40 and Aβ42 were quantified by sandwich ELISAs (Wako, Osaka, Japan) from cellular lysates and conditioned media collected. CNS penetration: in vitro PAMPA-BBB test. Prediction of the brain penetration was evaluated using a parallel artificial membrane permeability assay (PAMPA).1 Nine quality control compounds (mentioned below) of know BBB permeability were included in each experiment to validate the analysis set.2 Commercial drugs […] dissolved in 250 μL of DMSO (Sigma-Aldrich). 25 μL of these compound stock solutions were taken and 225 μL of DMSO and 4750 μL of PBS pH 7.4 buffer were added to reach 5% of DMSO concentration in the experiment and a final […] Compounds to be determined their ability to pass the brain barrier (0.5-1 mg) were dissolved in 250 μL of DMSO and 4750 μL of PBS pH 7.4 was carefully added to afford a final […]

O=C(Nc1nc2ccccc2s1)c1ccc(Cn2cc(COc3ccc(C(=O)Nc4nc5ccccc5s4)cc3)nn2)cc1 [compound 8]
reducing: Aβ40 levels in cellular lysates | Aβ40 levels in extracellular fluid | Aβ42 levels in extracellular fluid
